Data published in patent US20010014345A1, “MATERIAL, METHOD AND APPARATUS FOR INHIBITING BACTERIAL GROWTH IN AN AQUEOUS MEDIUM” (priority 1995, published 2001).
Values joined by “and” are separate entries in the source; they are usually repeats but may differ in a detail not shown here. Equal entries are not always repeated. Where two headings read alike, the source gives them in different places.

Experiments:
Pseudomonas aeruginosa [1] = assay: Biocide efficiency (B.E.) of immobilised biocides in recirculating column test; type: cell-based
Pseudomonas aeruginosa [2] = assay: Recirculating column test of immobilised biocide (active beads), viable bacterial counts / growth curve; type: cell-based; conditions: active beads on Amberlite XAD-4 or XAD-2, 10x1 cm column, after 24 hours, FIG. 2
[3] = Partition coefficients between octanol and water by UV/visible absorption
[4] = Presence or absence of free biocide in filter-sterilised culture after contact with active beads (MS and/or HPLC; leaching); type: physicochemical
[5] = column length 10 cm, biocide immobilised on Amberlite XAD-4, 24 h, 30° C., 13.5 ml/min

CCCCCCCCn1sc2ccccc2c1=O [Compound 1, 2-n-octylbenzoisothiazolin-3-one]
B.E. (t-24 h) (Pseudomonas aeruginosa [1]; [5]): 0.48
bacterial population versus blank bead controls (Pseudomonas aeruginosa [2]): significantly lower

CCCCCCCCCCCC[N+](C)(C)CCOc1ccccc1 [Domiphen]
logP (physchem): 1.7

Cn1sc2c(c1=O)CCC2 [Promexal]
P (partition coefficient between octanol and water) ([3]; 25° C., UV/visible absorption): ˜4.5
logP ([3]; n-octanol/water): 0.6

O=c1[nH]sc2ccccc12 [Proxel]
logP (physchem): -1.3

CCCCCCCCCCCCCCCCCCn1sc(Cl)cc1=O [Compound 4, 5-chloro-2-n-octadecyl-isothiazolin-3-one]
B.E. (t-24 h) (Pseudomonas aeruginosa [1]): 0.70 and 0.82 and 0.73 and 0.99 and 0.98

O=[N+]([O-])C(Br)(CO)CO [Bronopol]
B.E. (t-24 h) (Pseudomonas aeruginosa [1]; [5]): −0.80
logP (physchem): 0.18

CCCCCCCCCCCCCCCCn1sc2ccccc2c1=O [Compound 2, 2-n-hexadecyl-benzoisothiazolin-3-one]
B.E. (t-24 h) (Pseudomonas aeruginosa [1]; column length 10 cm, biocide immobilised on Amberlite XAD-2, 24 h, 30° C., 13.5 ml/min): 0.84
B.E. (t-24 h) (Pseudomonas aeruginosa [1]; [5]): 0.68 and 1.02 and 0.82 and 0.91
B.E. (t-24 h) (Pseudomonas aeruginosa [1]; column length 20 cm, biocide immobilised on Amberlite XAD-4, 24 h): 0.99 and 0.64 and 0.75
B.E. (t-24 h) (Pseudomonas aeruginosa [1]; column length 30 cm, biocide immobilised on Amberlite XAD-4, 24 h): 0.64 and 0.86
B.E. (t-24 h) (Pseudomonas aeruginosa [1]; column length 40 cm, biocide immobilised on Amberlite XAD-4, 24 h): 0.90

CCCCCCCCn1sccc1=O [Compound 5, 2-n-octyl-isothiazolin-3-one]
B.E. (t-24 h) (Pseudomonas aeruginosa [1]): 0.80 and 0.60
Present (MS): free biocide in solution [4]: trace
